Experimental data published in US8703811B2, “Small molecule inhibitors of Plasmodium falciparum dihydroorotate dehydrogenase” (Genzyme Corporation, priority 2008, dated 2014).
Read-outs that look alike come from different tables or passages of the source.

Tests used:
pfDHODH = pfDHODH (Plasmodium falciparum (isolate 3D7), UniProt Q08210); assay: DHODH chromogen reduction (DCIP) assay, pfDHODH; assay type: biochemical, P. falciparum
Source text: Type 2 DHODH activity was monitored with either the direct assay measuring the formation of orotate or via a chromogen reduction assay using DCIP. Although the extinction coefficient and absorption wavelength are preferable for the chromogen reduction assay, the inorganic electron acceptor DCIP can be utilized by DHODH as the final electron acceptor in lieu of CoQn when the endogenous substrate is at a low concentration. As such, the direct assay was used to measure the binding affinity of pfDHODH to CoQD and L-DHO. The enzymatic reaction was performed by varying the L-DHO concentration (1-400 μM) or CoQD concentration (1-200 μM) while keeping the other substrate constant and in excess.
Substrate specificity and enzyme inhibition data was analyzed with GraphPad Prism Version 4 for Windows (GraphPad Software). Kinetic constants were calculated by non-linear regression fitting of the data to the Michaelis-Menten equation [36]. IC50 values were determined by non-linear regression fitting of the data to Equation 1: […]

P. falciparum Dd2 = assay: Inhibition of in vitro P. falciparum culture, [3H]-hypoxanthine uptake, Dd2; assay type: cell-based; conditions: read-out: Dd2 EC50
Procedure: (§1) P. falciparum strains D10, 3D7, HB3, and Dd2 were obtained from the Malaria Research and Reference Reagent Resource Center (Manassas, Va.). The parasite strains were maintained in vitro by method of Trager and Jensen. The inhibition of P. falciparum growth in the presence of drug was assessed by the relative reduction of [^3H]-hypoxanthine uptake as previously described. Inhibition data were fitted to Equation 1 using non-linear regression analysis except that the relative velocity of parasite growth was substituted for the rate of product formation.

P. falciparum 3D7 = assay: Inhibition of in vitro P. falciparum culture, [3H]-hypoxanthine uptake, 3D7; assay type: cell-based; conditions: read-out: 3D7 EC50
Procedure: as §1

[1] = Table 2b, read-out: pfDHODH IC50
[2] = Plasmodium falciparum, DD2, Table 2b
[3] = Plasmodium falciparum, 3D7, Table 2b

Chain of pfDHODH (Q08210 159-565 limits assumed): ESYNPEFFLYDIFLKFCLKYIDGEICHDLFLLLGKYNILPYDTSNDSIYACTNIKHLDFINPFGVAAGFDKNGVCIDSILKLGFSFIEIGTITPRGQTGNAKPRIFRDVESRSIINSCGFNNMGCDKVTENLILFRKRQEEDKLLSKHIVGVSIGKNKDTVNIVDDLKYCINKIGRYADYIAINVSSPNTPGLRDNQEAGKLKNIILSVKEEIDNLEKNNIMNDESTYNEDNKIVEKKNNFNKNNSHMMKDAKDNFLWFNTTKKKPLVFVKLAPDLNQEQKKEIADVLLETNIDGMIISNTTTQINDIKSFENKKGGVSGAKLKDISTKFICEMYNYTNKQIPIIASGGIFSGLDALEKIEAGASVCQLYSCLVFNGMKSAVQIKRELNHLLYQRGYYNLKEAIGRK

Row | Structure (SMILES) | IC50 (pfDHODH; [1]) [µM] | EC50 (P. falciparum Dd2; [2]) [µM] | EC50 (P. falciparum 3D7; [3]) [µM] | IC50 (pfDHODH; pfDHODH IC50, Table 2b) [µM] | EC50 (P. falciparum Dd2; Table 2b) [µM] | EC50 (P. falciparum 3D7; Table 2b) [µM]
1 | CCCNC(=O)c1ccc(N2CCOCC2)s1 [Compound 13, 5-morpholino-N-propylthiophene-2-carboxamide] | > 250 | > 10 | > 10 | – | – | –
2 | CCCNC(=O)c1ccc(N2CCCC2)s1 [Compound 14, N-propyl-5-(pyrrolidin-1-yl)thiophene-2-carboxamide] | > 250 | > 10 | > 10 | – | – | –
3 | CCCNC(=O)c1ccc(-n2ccnc2)s1 [Compound 15, 5-(1H-imidazol-1-yl)-N-propylthiophene-2-carboxamide] | 165 | > 10 | > 10 | – | – | –
4 | CCCNC(=O)c1ccc(-n2cnc3cncnc32)s1 [Compound 16, N-propyl-5-(9H-purin-9-yl)thiophene-2-carboxamide] | – | > 10 | > 10 | – | – | –
5 | CCCNC(=O)c1ccc(N2CC(C)Sc3ccccc32)s1 (centres unmarked) [Compound 17, 5-(2-methyl-2H-benzo[b][1,4]thiazin-4(3H)-yl)-N-propylthiophene-2-carboxamide] | 19.1 | > 10 | > 10 | – | – | –
6 | CCCNC(=O)c1ccc(N2CCSc3ccccc32)s1 [Compound 18, 5-(2H-benzo[b][1,4]thiazin-4(3H)-yl)-N-propylthiophene-2-carboxamide] | 9.2 | > 10 | > 10 | – | – | –
7 | CCCNC(=O)c1ccc(N2CCOc3ccc(Cl)cc32)s1 [Compound 19, 5-(6-chloro-2H-benzo[b][1,4]oxazin-4(3H)-yl)-N-propylthiophene-2-carboxamide] | 7.5 | > 10 | > 10 | – | – | –
8 | CCCNC(=O)c1ccc(N2CCc3ccccc32)s1 [Compound 20, 5-(indolin-1-yl)-N-propylthiophene-2-carboxamide] | > 30 | > 10 | > 10 | – | – | –
9 | CCCNC(=O)c1ccc(N2CCSc3ncccc32)s1 [Compound 21, 5-(2,3-dihydro-1H-pyrido[2,3-b][1,4]thiazin-1-yl)-N-propylthiophene-2-carboxamide] | 13.8 | > 10 | > 10 | – | – | –
10 | CCCNC(=O)c1ccc(N2Cc3cccc(OC)c3Oc3ncccc32)s1 [Compound 22, 5-(10-methoxybenzo[f]pyrido[2,3-b][1,4]oxazepin-5(6H)-yl)-N-propylthiophene-2-carboxamide] | > 30 | > 10 | > 10 | – | – | –
11 | O=C(c1ccc(-n2cnc3ccccc32)s1)N1CCCC1 [Compound 26] | > 30 | 20 | 10 | – | – | –
12 | CN(C)C(=O)c1ccc(-n2cnc3ccccc32)s1 [Compound 27] | > 30 | > 40 | > 40 | – | – | –
13 | NC(=O)c1ccc(-n2cnc3ccccc32)s1 [Compound 28] | > 30 | 20 | > 40 | – | – | –
14 | CCCCNC(=O)c1ccc(-n2cnc3ccccc32)s1 [Compound 29] | 28.6 | 7.3 | 20 | – | – | –
15 | O=C(c1ccc(-n2cnc3ccccc32)s1)N1CCCCC1 [Compound 34] | > 30 | > 20 | > 20 | – | – | –
16 | CC[C@H](C)NC(=O)c1ccc(-n2cnc3ccccc32)s1 [Compound 37] | 17.9 | > 20 | > 20 | – | – | –
17 | Cc1nc2cc(Cl)ccc2n1-c1ccc(C(=O)NC2CC2)s1 [Compound 41] | – | – | – | 0.04 | 0.083 | 0.067
18 | O=C(NC1CC1)c1ccc(-n2c(O)nc3ccccc32)s1 [Compound 45] | > 30 | 5 | 5 | – | – | –
19 | O=C(c1ccc(-n2cnc3ccccc32)s1)N1CCC1 [Compound 46] | 16.5 | 5 | 5 | – | – | –
20 | CC[C@@H](C)NC(=O)c1ccc(-n2cnc3ccccc32)s1 [Compound 47] | > 30 | > 5 | > 5 | – | – | –
21 | CCCN(C)C(=O)c1ccc(-n2cnc3ccccc32)s1 [Compound 48] | > 30 | > 5 | > 5 | – | – | –
22 | Cc1nc2cnccc2n1-c1ccc(C(=O)NC2CC2)s1 [Compound 71] | 3.08 | 6.3 | 3.7 | – | – | –
23 | Cc1nc2cccnc2n1-c1ccc(C(=O)NC2CC2)s1 [Compound 72] | 1.12 | 0.52 | 0.364 | – | – | –

Row | Structure (SMILES) | IC50 (pfDHODH; [1]) [µM] | EC50 (P. falciparum Dd2; [2]) [µM] | EC50 (P. falciparum 3D7; [3]) [µM] | IC50 (pfDHODH; pfDHODH IC50, Table 2b) [µM] | EC50 (P. falciparum Dd2; Table 2b) [µM] | EC50 (P. falciparum 3D7; Table 2b) [µM]
24 | Cc1nc2ncccc2n1-c1ccc(C(=O)NC2CC2)s1 [Compound 73] | 4.77 | 2.4 | 1.3 | – | – | –
25 | Cc1nc2ccccc2n1-c1cscc1C(=O)NC1CC1 [Compound 77, N-cyclopropyl-4-(2-methyl-1H-benzo[d]imidazol-1-yl)thiophene-3-carboxamide] | > 30 | > 5 | > 5 | – | – | –
26 | Cc1nc2ccccc2n1-c1cc(C(=O)NC2CC2)cs1 [Compound 78, N-cyclopropyl-5-(2-methyl-1H-benzo[d]imidazol-1-yl)thiophene-3-carboxamide] | 1.7 | 2.05 | 1.02 | – | – | –
27 | Cn1c(-c2ccc(C(=O)NC3CC3)s2)nc2ccccc21 [Compound 79] | > 30 | > 5 | > 5 | – | – | –
28 | O=C(NC1CC1)c1ccc(-c2nc3ccccc3o2)s1 [Compound 80] | > 30 | 1.71 | 2.58 | – | – | –
29 | c1ccc2[nH]c(-c3ccc(-c4nc5ccccc5[nH]4)s3)nc2c1 [Compound 81] | > 30 | > 5 | 5 | – | – | –
30 | Cn1c(-c2ccc(-c3nc4ccccc4n3C)s2)nc2ccccc21 [Compound 82] | > 30 | > 5 | > 5 | – | – | –
31 | c1ccc2oc(-c3ccc(-c4nc5ccccc5o4)s3)nc2c1 [Compound 83] | > 30 | > 5 | > 5 | – | – | –
32 | CCCCC(O)c1ccc(-n2cnc3ccccc32)s1 (centres unmarked) [Compound 85, 1-[5-(1H-benzimidazol-1-yl)-2-thienyl]pentan-1-ol] | > 30 | 5.9 | 20 | – | – | –
33 | CCCC/C(=N\O)c1ccc(-n2cnc3ccccc32)s1 [Compound 86, 1-[5-(1H-benzimidazol-1-yl)-2-thienyl]pentan-1-one oxime] | > 30 | 20 | 10 | – | – | –
34 | CCCC/C(=N/O)c1ccc(-n2cnc3ccccc32)s1 [Compound 87, 1-[5-(1H-benzimidazol-1-yl)-2-thienyl]pentan-1-one oxime] | > 30 | 10 | 40 | – | – | –
35 | CCCC/C(=N/OC)c1ccc(-n2cnc3ccccc32)s1 [Compound 88, 1-[5-(1H-benzimidazol-1-yl)-2-thienyl]pentan-1-one O-methyloxime] | > 30 | 2.6 | 5.4 | – | – | –
36 | CCCC/C(=N\OC)c1ccc(-n2cnc3ccccc32)s1 [Compound 89, 1-[5-(1H-benzimidazol-1-yl)-2-thienyl]pentan-1-one O-methyloxime] | > 30 | 4.4 | 5.3 | – | – | –
37 | CCNC(=O)c1ccc(-n2c(C)nc3cc(F)ccc32)cc1 [Compound 91] | 2.87 | > 0.5 | > 0.5 | – | – | –
38 | CCNC(=O)c1cccc(-n2c(C)nc3cc(F)ccc32)c1 [Compound 92] | > 30 | > 1 | > 1 | – | – | –
39 | Cc1nc2cc3ccccc3cc2n1-c1ccc(C(=O)NC2CC2)s1 [Compound 93] | 0.035 | 0.019 | 0.017 | – | – | –
40 | Cc1nc2cc(OC(C)C)ccc2n1-c1ccc(C(=O)NC2CC2)s1 [Compound 94] | 0.121 | 0.061 | 0.051 | – | – | –
41 | Cc1nc2cc(F)c(F)cc2n1-c1ccc(C(=O)NC2CC2)s1 [Compound 95] | 0.105 | – | – | – | – | –
42 | Cc1nc(-c2ccc(Cl)cc2)cn1-c1ccc(C(=O)NC2CC2)s1 [Compound 96] | 0.252 | – | – | – | – | –
43 | Cc1nc2cc(-c3ccccc3)ccc2n1-c1ccc(C(=O)NC2CC2)s1 [Compound 97] | 0.178 | – | – | – | – | –
44 | Cc1nc2ccc(-c3ccccc3)cc2n1-c1ccc(C(=O)NC2CC2)s1 [Compound 98] | 0.089 | – | – | – | – | –
45 | O=C(NC1CC1)c1ccc(-n2nnc3ccccc32)s1 [Compound 99, 5-(1H-benzo[d][1,2,3]triazol-1-yl)-N-cyclopropylthiophene-2-carboxamide] | 28 | – | – | – | – | –
46 | O=C(NC1CC1)c1ccc(-n2ncc3ccccc32)s1 [Compound 100, N-cyclopropyl-5-(1H-indazol-1-yl)thiophene-2-carboxamide] | > 30 | – | – | – | – | –
